Measurements reported in patent US6897239B1, “Use of misoprostol and/or metabolites of misoprostol for treating sexual dysfunction in women” (Lavipharm S.A., priority 1998, dated 2005).
Read-outs that look alike come from different tables or passages of the source. One block for each compound: values may come before it.

Experiments:
[1] = system: women with sexual dysfunction; test: external application of misoprostol to the clitoris or/and to the vagina; assay type: in vivo; conditions: for local vasodilation after external application: used externally to the clitoris or/and to the vagina
Excerpt: Because of the local vasodilation is caused tumescence of the clitoris, intence bleeding of the vagina and feeling of sexual desire. Simultaneously, in women with anorgasmia of various causes, promote after masturbation or sexual intercourse, the coming of orgasm.
Method of application: 0.1 (or more, depending on responce) are applied to the clitoris or/and to the vagina.
(§1) As had already been mentioned, misoprostol is an extremely hydrophile molecule compared with other prostaglandins of E1 series (e.g. with alprostadil which can be dissolved in alcohol but her solubility in water is only 8000 mcg/100 ml at 35° C.).

[2] = at 35° C.; cited from earlier work
[3] = system: patients; conditions: cited from earlier work
[4] = solubility in water; assay type: physicochemical
Description: as §1

Structure (SMILES): CCCCC(C)(O)C/C=C/[C@H]1[C@H](O)CC(=O)[C@@H]1CCCCCCC(=O)O (mixture of isomers) [misoprostol acid]
- local vasodilation after external application [1]: Equally strong topical vasodilation

Structure (SMILES): CCCCC[C@H](O)/C=C/[C@H]1[C@H](O)CC(=O)[C@@H]1CCCCCCC(=O)O [alprostadil]
- solubility in water [2]: 8000 mcg/100 ml

- solubility in water [4]: can be dissolved in water
- undesirable effects in the presence of a-cyclodextrine ([1]; presence of a-cyclodextrine): reduces the undesirable effects
Structure (SMILES): CCCCC(C)(O)C/C=C/[C@H]1[C@H](O)CC(=O)[C@@H]1CCCCCCC(=O)OC (mixture of isomers) [Misoprostol, (11a,13E)-(±)-11,16-Dihydroxy-16-methyl-9-oxoprost-13-en-1-oic acid methyl ester]
- carcinogenic or teratogenic effect ([3]; in vivo): hasn't been accused
- effect on uterus ([3]; in vivo): irritation of the smooth uterine fibbers
- undesirable effects in oral therapy ([3]; oral therapy): male impotence
- time of appearance of the result ([1]; external application of the example forms): 20 to 40 min
- systematic undesirable effects ([1]; high once only doses >1000 mcg to the clitoris or to the vagina): shudder, feeling of hard ship, excitement and diarrhea
- misoprostol action in the presence of Polysorbate "80" ([1]; in the presence of Polysorbate "80"): important reduction or/and neutralization
- change of misoprostol activity as a function of pH ([1]; pH of the pharmacotechnical form): No significant changes
- local vasodilation after external application [1]: strong local vasodilation
